{"source": "patent US20220193209A1", "about": "“COMPOSITIONS AND METHODS FOR REACTIVATING LATENT IMMUNODEFICIENCY VIRUS AND/OR TREATING IMMUNODEFICIENCY VIRUS INFECTION” (The J. David Gladstone institutes, a testamentary trust …, priority 2019, published 2022)", "key": {"FOXO1": {"biological_target": "T1, FOXO1 (Homo sapiens, UniProt Q12778)", "T1 construct": "performed against the FOXO isoforms expressed in K562 cells; endogenous in cells; host or cells: K562", "T1 sequence (Q12778 whole entry, canonical isoform)": "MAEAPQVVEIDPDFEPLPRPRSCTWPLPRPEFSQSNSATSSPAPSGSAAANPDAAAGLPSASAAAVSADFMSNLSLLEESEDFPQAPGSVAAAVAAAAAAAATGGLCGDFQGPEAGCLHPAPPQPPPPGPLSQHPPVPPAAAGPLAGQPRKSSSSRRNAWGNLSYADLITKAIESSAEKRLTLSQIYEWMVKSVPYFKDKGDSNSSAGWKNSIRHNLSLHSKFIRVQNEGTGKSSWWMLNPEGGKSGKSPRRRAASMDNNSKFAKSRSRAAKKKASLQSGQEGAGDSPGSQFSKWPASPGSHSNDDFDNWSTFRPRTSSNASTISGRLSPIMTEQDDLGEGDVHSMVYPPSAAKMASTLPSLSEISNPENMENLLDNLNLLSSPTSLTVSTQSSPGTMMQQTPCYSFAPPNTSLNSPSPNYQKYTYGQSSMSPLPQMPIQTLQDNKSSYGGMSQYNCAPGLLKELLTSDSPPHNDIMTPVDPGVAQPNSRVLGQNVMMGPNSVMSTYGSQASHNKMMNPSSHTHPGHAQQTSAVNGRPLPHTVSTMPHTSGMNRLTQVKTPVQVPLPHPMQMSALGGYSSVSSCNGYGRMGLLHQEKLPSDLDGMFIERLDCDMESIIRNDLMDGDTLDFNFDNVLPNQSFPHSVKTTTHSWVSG", "assay": "Cellular Thermal Shift Assay (CETSA) in K562 cells, FOXO1", "assay_type": "binding", "conditions": "1 μM", "method": "K562 cells (ATCC) were maintained in appropriate volume of RPMI medium supplemented with 10% fetal bovine serum (Serum Plus—II, Sigma MO, USA), 100 units/mL penicillin and 100 […] (Corning, VA, USA). Short-term passages (<15) were used for all experiments. For CETSA, K562 cell were freshly seeded the day before the experiment. The day of experiment, equal numbers of cells were counted by Moxi Mini automated cell counter (Orflo) and 0.6×10^6 cells per data point were seeded in T-25 cell culture flasks (VWR, PA, USA) in appropriate volume of culture medium. Cells were exposed to […] AS1842856 or equal volume DMSO for 3 hours in an incubator with 5% CO2 and 37° C. […] The supernatants were transferred to new microcentrifuge tubes and analyzed by SDS-PAGE followed by immunoblotting analysis. […] Immunoblotting results were subjected to densitometric analysis (Image J) and melting temperatures of FOXO1, FOXO3 and FOXO4 were determined by Prism 7 (GraphPad) using nonlinear least-squares regression fit to Y=100/(1+10^(Log IC50−X)*H), where H=Hill slope (variable). The viability of the cells was assessed in triplicate by trypan blue exclusion. […]\nBriefly, K562 cells were treated with increasing concentrations of the FOXO1 inhibitor AS1842856 just after HIVGKO infection. After 3-4 days, the percentage of latent cells and productive cells were quantified by FACS. […]"}, "FOXO4": {"biological_target": "T2, FOXO4 (Homo sapiens, UniProt P98177)", "T2 construct": "performed against the FOXO isoforms expressed in K562 cells; endogenous in cells; host or cells: K562", "T2 sequence (P98177 whole entry, canonical isoform)": "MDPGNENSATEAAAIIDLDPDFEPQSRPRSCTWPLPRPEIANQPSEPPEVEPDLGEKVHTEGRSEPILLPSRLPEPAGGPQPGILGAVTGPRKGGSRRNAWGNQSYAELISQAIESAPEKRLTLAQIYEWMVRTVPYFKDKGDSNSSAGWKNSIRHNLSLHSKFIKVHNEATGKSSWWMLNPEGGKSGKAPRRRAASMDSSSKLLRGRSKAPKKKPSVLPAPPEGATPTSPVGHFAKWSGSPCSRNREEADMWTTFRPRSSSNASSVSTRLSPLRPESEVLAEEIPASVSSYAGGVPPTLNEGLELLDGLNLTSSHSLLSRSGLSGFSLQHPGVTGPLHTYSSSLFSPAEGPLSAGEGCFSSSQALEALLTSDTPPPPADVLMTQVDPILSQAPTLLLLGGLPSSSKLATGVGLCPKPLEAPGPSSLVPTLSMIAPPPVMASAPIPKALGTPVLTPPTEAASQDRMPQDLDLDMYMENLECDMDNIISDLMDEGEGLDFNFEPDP", "assay": "Cellular Thermal Shift Assay (CETSA) in K562 cells, FOXO4", "assay_type": "binding", "conditions": "1 μM", "method": "K562 cells (ATCC) were maintained in appropriate volume of RPMI medium supplemented with 10% fetal bovine serum (Serum Plus—II, Sigma MO, USA), 100 units/mL penicillin and 100 […] (Corning, VA, USA). Short-term passages (<15) were used for all experiments. For CETSA, K562 cell were freshly seeded the day before the experiment. The day of experiment, equal numbers of cells were counted by Moxi Mini automated cell counter (Orflo) and 0.6×10^6 cells per data point were seeded in T-25 cell culture flasks (VWR, PA, USA) in appropriate volume of culture medium. […] The supernatants were transferred to new microcentrifuge tubes and analyzed by SDS-PAGE followed by immunoblotting analysis. […] Immunoblotting results were subjected to densitometric analysis (Image J) and melting temperatures of FOXO1, FOXO3 and FOXO4 were determined by Prism 7 (GraphPad) using nonlinear least-squares regression fit to Y=100/(1+10^(Log IC50−X)*H), where H=Hill slope (variable). The viability of the cells was assessed in triplicate by trypan blue exclusion.\nWhether the effect of AS1842856 was mediated by its interaction with FOXO1 was confirmed. […] AS1842856-FOXO binding was considered ‘positive’ if there was a significant change in the thermal profile of the protein between the presence and the absence of the drug assessed by western blot (FIG. 2, Panel A). […]"}, "[1]": {"tested_on": "HIV latency establishment (HIVGKO) in primary CD4+ T cells", "assay": "HIVGKO latency establishment in primary resting CD4+ T cells", "assay_type": "cell-based, HIV-1", "conditions": "increasing doses, 72 hours"}}}
{"smiles": "CCn1cc(C(=O)O)c(=O)c2c(N)c(F)c(NC3CCCCC3)cc21", "note": "[AS1842856, 5-amino-7-(cyclohexylamino)-1-ethyl-6-fluoro-4-oxo-1,4-dihydro-quinoline-3-carboxylic acid]", "values": [{"measurement": "shift in FOXO1 melting curve", "setting": "FOXO1", "result": 7.23, "unit": "°C"}, {"measurement": "change in FOXO4 melting curve", "setting": "FOXO4", "result": "no changes"}, {"measurement": "productive infection and establishment of latency", "setting": "[1]", "result": "promoted productive infection and decreased the establishment of latency"}]}
